# Source: the OPERA property sets (Mansouri et al. 2018)
# Where a SMILES comes first, the peptide text is derived from it.
# Conditions: not given
row,SMILES,solubility [mM]
1,O=C1CNC(=O)C(Cc2ccc(O)cc2)N1 (configuration not stated),90.8
2,CCOC(CC(C)O)OCC (configuration not stated),1230
3,O=C(O)C=CCCC(=O)O,62.4
4,O=C(OC1CCNCC1)c1ccccc1,48.7
5,CC1NC(=O)CNC1=O (configuration not stated),1950
6,Cn1c(=O)[nH]n(-c2ccccc2)c1=O,1.05
7,O=C(O)CSSSSCC(=O)O,35.3
8,Cn1cc(I)ccc1=O,979
9,C[C@H](NC(=O)c1ccccc1)C(=O)O (racemic),20.7
10,O=C(c1cc([N+](=O)[O-])cc([N+](=O)[O-])c1)N(O)c1ccccc1,0.231
11,CCOC(OCC)C(Cl)(Cl)Cl,22.6
12,Oc1ccc(Sc2ccccc2)cc1,1.68
13,CC(C)CC(c1ccc(O)cc1)c1ccc(O)cc1,0.429
14,O=C(NCCc1c[nH]cn1)c1ccccc1,232
15,CCOCCOC(=O)CCCCCCCCC(=O)OCCOCC,0.635
16,CCCCOC(=O)CCC(=O)OCCCC,0.999
17,O=C(c1ccco1)N(O)c1ccccc1,0.64
18,C[C@@H](O)CCCC=O,344

row,SMILES,solubility [mM]
1,O=C(O)C(Cl)(Cl)CCCl,261
2,O=S(=O)(O)c1ncc[nH]1,844
3,Cn1c(=O)ncc2[nH]c(=O)[nH]c21,161
4,NC(CC(=O)O)c1cccc2ccccc12 (configuration not stated),25.7
5,CN(C)C1CCC=CCCC1 (configuration not stated),25.1
6,Oc1ncncc1Br,357
7,Cc1nn(-c2ccccc2)c(N)c1C,21.4
8,CC=Cc1ccc(OCC(=O)O)c(OC)c1,26.1
9,CCOC(=O)[C@H](C)NC(=O)CCl,345
10,Nc1ccc(C#Cc2ccc(N)cc2)cc1,3.69
11,CC(=O)C(=Cc1ccccc1)CC(=O)O,24.5
12,Cn1cnc2nc(Cl)nc(Cl)c21,70.4
13,CCOc1ccc(NC(=O)CO)cc1,7.84
14,CC(S(C)(=O)=O)S(C)(=O)=O,38.1
15,C=CCc1ccc(OCC(=O)O)c(OC)c1,5.27
16,O=C(c1ccccc1I)N(O)c1ccccc1,0.295
17,O=C(c1ccccc1)N(O)c1cccc2ccccc12,0.494

# Same assay, conditions: 20 °C
row,SMILES,solubility [mM]
1,O=S(=O)(CCCl)CCCl,31.4
2,COc1c(C(=O)O)oc2ccccc12,1.3
3,O=CC(O)C(O)C(O)[C@H](O)C(O)CO (stereo in doubt),476
4,CC(C)C(CC(=O)O)C(=O)O (configuration not stated),391
5,NC(=O)NC(Cc1ccccc1)C(=O)O (racemic),8.02
6,CCOCC(N)C(=O)O (configuration not stated),3340
7,O=C(O)CNC(=O)CNS(=O)(=O)c1ccc2ccccc2c1,2.02
8,CC(=O)C(=O)c1ccccc1,17.5
9,COc1ncc2nccnc2n1,77.1
10,O=C(O)CCCC(C(=O)O)(c1ccccc1)c1ccccc1,0.67
11,Cn1cnc2c(=O)n(C)c(=O)n(C)c2c1=O,10.4
12,NC(=O)CBr,1160
13,O=C(CCCCC(=O)NCCO)NCCO,2580
14,CCOc1nsc(N)n1,223
15,COC(=O)c1cc([N+](=O)[O-])ccc1C(=O)O,19
16,Clc1cnc2ncncc2n1,75
17,COc1ccc2c(c1)Sc1ccc(Cl)cc1N2,0.0105
18,CC(C#N)(CCC(=O)O)/N=N/C(C)(C#N)CCC(=O)O (configuration not stated),9.81
19,Nc1ncnc2c1ncn2[C@@H]1O[C@H](COP(=O)(O)O)[C@@H](O)[C@H]1O,28.8
20,Nc1ncc2nccnc2n1,5.04
21,COc1nsc(N)n1,57.2
22,CC(C)(O)CCl,1450
23,Cc1cc(O)c(C(=O)O)c(O)c1,8.92
24,COCc1ccc(C=O)o1,317
25,CC(=O)Nc1ccc(S(=O)(=O)Nc2ccccn2)cc1,0.192
26,Oc1cnc2ccccc2c1,4.05
27,CC1NC(C)SC(C)S1 (configuration not stated),42.9

row,SMILES,solubility [mM]
1,CC1(CCN2CCCCC2)NC(=O)NC1=O (configuration not stated),151
2,CNc1ncc2nccnc2n1,19.4
3,CC(=O)NC(NC(C)=O)c1ccccc1,48.5
4,Cc1nc2c(=O)n(C)c(=O)n(C)c2nc1C,45.4
5,CC(=O)CC1=NCCS1,69.8
6,Nc1ccc(Cl)cc1[N+](=O)[O-],2.9
7,CCC(C)(O)C(O)c1ccccc1 (configuration not stated),18.9
8,N#Cc1c(O)cc(Cl)[nH]c1=O,58.6
9,CC(C)COC(=O)c1ccc(N)cc1,1.14
10,O=C(O)CCP(=O)(O)O,3170
11,CN(C)c1ncnc2nccnc12,95.1
12,O=C(O)CCCCCCCCCCO,1.98
13,O=Cc1ccc(Br)o1,28.6
14,Cc1ncnc2nc[nH]c12,1490
15,ClCCOCOCCCl,45.1
16,NN=c1nc[nH]c2nccnc12,13.7
17,CCCCCCC(O)C(O)C(=O)O (configuration not stated),28.4
18,Cc1cc(C)cc(OCC(=O)O)c1,4.44
19,C=CCC1(CC)C(=O)NC(=O)NC1=O,20.5
20,CCC(C)S (configuration not stated),14.6
21,CC(C)OC(=O)c1c(C(=O)O)cccc1[N+](=O)[O-],3.24
22,CC(C)(C)S(=O)(=O)C(C)(C)C,60.6
23,O=C(OCCO)c1ccccc1O,69.7
24,OCC(O)C1OC(Oc2ccccc2)C(O)C(O)C1O (configuration not stated),27.9
25,COc1ccccc1C(N)=O,16.5
26,Cc1cnnc2c(O)cccc12,2.1
27,Cc1nc2cncnc2n(C)c1=O,32.4

# Same assay, conditions: 21 °C
row,SMILES,solubility [mM]
1,CNC(CC(=O)O)C(=O)O (stereo in doubt),176
2,CC(=O)N[C@@H](Cc1c[nH]c2ccccc12)C(=O)O (racemic),4.87
3,NC(=S)NCNC(N)=S,21.3
4,NC(N)=NCCS(=O)(=O)O,233

# Same assay, conditions: 22 °C
row,SMILES,solubility [mM]
1,O=[N+]([O-])c1cccc(P(=O)(O)O)c1,4830

# Same assay, conditions: 23 °C
row,SMILES,solubility [mM]
1,NC(=O)N/N=C/[C@H](O)[C@@H](O)[C@@H](O)[C@H](O)CO,222
2,CC(=O)C1(C)CO1 (configuration not stated),2400
3,CC(C)C(=O)Oc1ccc([N+](=O)[O-])cc1,0.11
4,CCCc1nc(N)c(CC)c(CCC)n1,3.07

# Same assay, conditions: 25 °C
row,SMILES,solubility [mM]
1,CN(C)c1cccc(S(=O)(=O)O)c1,1990
2,CC(=O)OC[C@@H](O)[C@@H](OC(C)=O)[C@H](OC(C)=O)[C@H](C=O)OC(C)=O,44.2
3,CCCCCOC(=O)CCOCC,6.37
4,O=c1ccc(Br)cc(Br)c1O,0.314
5,Nc1cc([N+](=O)[O-])ccc1I,0.0379
6,Oc1ccc(C2CCCCC2)cc1,0.34
7,CCCC(=O)NCCNC(=O)CCC,239
8,COc1cc(Br)c2c(c1OC)C(=O)OC2,0.117
9,Cn1c(=O)c2[nH]c(Cl)nc2n(C)c1=O,31.1
10,ON=C1CCCCC1,159
11,CC1(C)OC(=O)c2cc([N+](=O)[O-])ccc21,0.888
12,CCCCP(=O)(CCCC)OCC,63
13,C[Si](C)(C)CCCN,11.2
14,CCOc1ccccc1C=CC(=O)[O-],1.19
15,CCCCOC(=O)CCOCC,23
16,O=NN1CCCC1=O,1130
17,CCCCS(=O)(=O)C(S(=O)(=O)CCCC)S(=O)(=O)CCCC,1.06
18,C1CCC2NCCCC2C1 (configuration not stated),82.6
19,Cc1cc(Cl)c(O)c(Cl)c1,38
20,Cc1cc(C)c([PH](=O)O)c(C)c1,1.62
21,CC(C)[C@H](NCCC#N)C(=O)O,75.2
22,O=C(O)c1ccc(O)cc1O,37.5
23,CCCCCCNC(=O)c1cccnc1,3.01
24,CCOC(=O)N1CCN(C(=O)OCC)CC1,187
25,CCOP(=O)(OCC)C(Cl)(Cl)Cl,17.6
26,CC1(C)OC(=O)c2ccccc21,13.5
27,CCCCCCCCOCCO,7.5
28,CCC1OC(=O)c2ccccc21 (configuration not stated),17.9

row,SMILES,solubility [mM]
1,O=C(O)c1cccs1,58.5
2,CCCCCCCCOC(=O)C(C)O (configuration not stated),53.4
3,C[C@@H](N)C(C)(C)C,9690
4,O=C1CC=CS1,599
5,COC(=O)OC(C)C(=O)OC (configuration not stated),251
6,CCOc1ccc(NC(C)=O)c(C)c1,14.5
7,CCC(=NO)C(CC)=NO,2.8
8,CCCCCCOC(=O)CCOCC,1.48
9,NC(=O)OC(CCl)CCl,43.6
10,NC(=O)c1cccc(S(N)(=O)=O)c1,6.99
11,O=C(O)c1cccc(C(=O)O)c1[N+](=O)[O-],10.2
12,NC(=O)NCC(=O)NCC(=O)O,126
13,O=C(O)Cc1cc(O)ccc1O,5050
14,CCCCCCCCNC(=O)c1cccnc1,0.982
15,CCCCCCOC(=O)c1cccnc1,2.22
16,CCNCNC(=O)c1ccccc1,842
17,CC(C)C[C@H](N)C(=O)N[C@@H](CCC(=O)O)C(=O)O (H-Leu-Glu-OH),127
18,COc1ccc(C(=O)CCC(=O)O)cc1,86.5
19,CCN[C@@H](C)C(=O)O (racemic),4490
20,O=COCc1ccco1,104
21,Cc1nnc(N)nc1C,80.6
22,CCCCOC(=O)C(C)OC(=O)C(C)O (configuration not stated),42.2
23,O=c1ccc(Br)ccc1O,0.274
24,CCSC(C(=O)O)c1ccccc1 (configuration not stated),27
25,CCOC(=O)CCc1ccccc1,1.23
26,CCCCCCCCOC(=O)c1cccnc1,0.807
27,O=C(O)c1cccc2cccnc12,18

# Same assay, conditions: 26 °C
row,SMILES,solubility [mM]
1,CC(C=NO)=NO,451
2,O=C(S)CCCCCCC(=O)S,5.82
3,N#CCCN(CCC#N)[C@@H](CCC(=O)O)C(=O)O,592
4,O=C(S)CCCCC(=O)S,18.5
5,Cc1ccc(C)c(C)n1,257

# Same assay, conditions: 27 °C
row,SMILES,solubility [mM]
1,Cc1c2c(cc3c1ccc1ccccc13)CCCC2,0.000179

# Same assay, conditions: 30 °C
row,SMILES,solubility [mM]
1,O=C(O)c1ccccc1C(=O)c1ccc(Br)cc1,0.983
2,CN(C)C(=O)c1cccc(C(=O)N(C)C)c1,3070
3,COC(=O)c1ccc(O)c(Cl)c1,1.34
4,CCCOC(=O)c1ccc(O)c(I)c1,0.206
5,CCCCCCCOC(=O)c1ccc(O)cc1,0.0846
6,CCCOC(=O)CO[N+](=O)[O-],11
7,CS(=O)(=O)NS(C)(=O)=O,1100
8,CCOC(=O)CO[N+](=O)[O-],19.4
